Measurements as given in paper PMC9016704, “Dichlorophenylpyridine-Based Molecules Inhibit Furin through an Induced-Fit Mechanism” (ACS Chemical Biology, 2022).
Read-outs that look alike come from different tables or passages of the source. Values belong to the compound of their own block, whether it stands above or below them. Non-standard residues stand in square brackets, D forms with d. Residues, ends and D or L forms follow the SMILES beside them. *: point of attachment. AMC = Cc1cc(=O)oc2cc(N*)ccc12; pGlu = O=C1CC[C@@H](C(=O)O)N1

Experiments:
furin [1] = molecular target: T1, furin (Homo sapiens, UniProt P09958); assay: Protein thermostability measurement by nanoDSF; assay type: binding; design: made in house; settings: for Tm #1 / Tm #2 / Tm Mean: furin-inhibitor complex; for Tm #1: replicate #1; for Tm #2: replicate #2; for Tm Mean: ligand-free furin 57.7 ± 0.1; for ΔTm: gain versus ligand-free furin
From the text: Interactions of inhibitors with furin increased the structural stability of the protease–inhibitor complexes compared with the ligand-free protease, which was indicated by an increase in the melting temperature (Tm).[23] We investigated the impact of the (3,5-dichlorophenyl)pyridine-based compounds on the structural stability of furin using differential scanning fluorimetry (nanoDSF[24]). […] The gain in Tm correlated well with the measured pIC50 (i.e., −log10(IC50)) values (Figure 2B), as reported for substrate-like inhibitors.[10],[25] […]
Protein thermostability measurement by nanoDSF. The thermostablity of furin-inhibitor complexes was further assessed by nanoDSF.16 In nanoDSF, protein unfolding was monitored by the change of the intrinsic fluorescence of the protein, mainly from tryptophan and tyrosine residues in the protein. 10 ul 0.2 mg mL-1 (3.8 µM) protein solutions (10mM Hepes/NaOH pH 7.5; 100 mM NaCl; 2 mM CaCl2) were loaded into nanoDSF grade standard capillaries (NanoTemper Technologies). The samples were heated up with a ramp rate of 1 °C min-1 over a temperature range of 20-95 °C. The thermal unfolding profiles of the proteins were recorded using the Prometheus NT.48 instrument (NanoTemper Technologies). Measurements were performed in duplicate. Unfolding transition temperatures (Tm) were automatically determined by the instrument software.
Target sequence in this assay (P09958 108-574 limits assumed): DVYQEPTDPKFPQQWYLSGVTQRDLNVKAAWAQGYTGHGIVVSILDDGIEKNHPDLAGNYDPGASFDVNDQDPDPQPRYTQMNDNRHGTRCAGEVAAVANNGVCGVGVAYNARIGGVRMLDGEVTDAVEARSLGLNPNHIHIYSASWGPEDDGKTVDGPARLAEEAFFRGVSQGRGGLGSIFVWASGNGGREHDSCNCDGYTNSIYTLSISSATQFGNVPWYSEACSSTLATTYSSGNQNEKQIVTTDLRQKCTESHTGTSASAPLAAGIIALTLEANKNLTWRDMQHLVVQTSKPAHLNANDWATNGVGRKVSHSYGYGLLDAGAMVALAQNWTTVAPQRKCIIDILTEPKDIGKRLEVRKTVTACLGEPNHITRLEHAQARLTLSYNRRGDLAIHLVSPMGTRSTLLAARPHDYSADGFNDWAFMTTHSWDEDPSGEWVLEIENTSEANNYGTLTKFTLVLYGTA

furin [2] = test system: furin; design: method as in earlier work; settings: enzyme kinetics measurements; cited from earlier work
furin [3] = molecular target: T1, furin; assay: Surface plasmon resonance binding to immobilized furin; settings: for koff: read-out: koff Mean ± SD; for kon: read-out: kon Mean ± SD; for residence time: reciprocal of the mean koff, read-out: residence time τ
Description: As the (3,5-dichlorophenyl)pyridine derivatives bind tightly to furin, we used single-cycle kinetic experiments to determine their off-rates.[18] […]
SPR-experiments. 1, 3 and hexa-D-Arginine 14 were dissolved to a 10 mM stock solution in DMSO. This stock solution was initially diluted 100-fold in running buffer (10 mM HEPES pH 7.5, 100 mM NaCl, 2 mM CaCl2; 0.05% Tween; 1% DMSO) to a concentration of 100 µM and 1% DMSO. The stock solution in 1% DMSO was then further diluted in running buffer with […]
Furin was immobilized onto a NTA-chip after pre-loading with Ni2+ using standard procedures.
Immobilization levels of furin were in the range of 6000-6500 RU. Binding studies were performed with a Biacore T200 SPR system at 25°C in 10 mM HEPES pH 7.5, 100 mM NaCl, 2 mM CaCl2; 0.05% (v/v) Tween 20, and 1% (v/v) DMSO. Inhibitor 1 and 3 concentrations were […]
and 500 nM. Binding studies for 1 and 3 were performed in the single-cycle kinetic mode using […]
Target sequence in this assay (P09958 108-794): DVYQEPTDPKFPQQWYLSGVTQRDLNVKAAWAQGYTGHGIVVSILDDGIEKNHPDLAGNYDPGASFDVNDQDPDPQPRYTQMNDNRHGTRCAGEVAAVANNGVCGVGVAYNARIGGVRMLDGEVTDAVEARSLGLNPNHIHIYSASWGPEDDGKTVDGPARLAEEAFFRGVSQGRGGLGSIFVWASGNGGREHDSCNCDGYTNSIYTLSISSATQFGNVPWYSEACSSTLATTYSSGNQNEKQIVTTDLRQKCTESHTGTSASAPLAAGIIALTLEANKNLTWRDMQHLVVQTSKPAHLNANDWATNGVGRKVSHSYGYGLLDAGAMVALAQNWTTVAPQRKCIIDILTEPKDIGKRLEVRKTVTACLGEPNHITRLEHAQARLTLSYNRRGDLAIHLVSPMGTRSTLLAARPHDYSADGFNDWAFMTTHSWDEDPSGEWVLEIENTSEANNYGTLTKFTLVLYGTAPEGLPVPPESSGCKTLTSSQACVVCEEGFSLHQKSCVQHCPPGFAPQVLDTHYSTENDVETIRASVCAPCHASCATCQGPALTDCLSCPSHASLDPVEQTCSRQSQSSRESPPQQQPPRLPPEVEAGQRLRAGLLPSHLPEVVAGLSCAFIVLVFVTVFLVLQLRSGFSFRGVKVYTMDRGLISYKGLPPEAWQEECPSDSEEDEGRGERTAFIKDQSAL

furin [4] = molecular target: T1, furin; assay: MALDI-TOF-MS-based furin activity assay, TGFβ-derived substrate; assay type: biochemical; design: made in house
Target sequence in this assay (P09958 108-574 limits assumed): as the sequence (P09958 108-574 limits assumed) above

furin [5] = molecular target: T1, furin; assay: Enzyme kinetic assay with fluorogenic substrate pERTKR-AMC; assay type: biochemical; design: made in house
Description: To determine the inhibition mode for compound 1, we performed enzyme kinetic assays with the fluorogenic PC substrate pyr-ERTKR-7-amino-4-methylcoumarin (pERTKR-AMC).
Additionally, internal calibration was performed using the monoisotopic peak of the respective […]
MALDI-TOF data, processed with flexAnalysis or MALDI Pharma Pulse, were exported as a comma delimited (.csv) file. Datasets were further processed with either GraphPad Prism (v9.00; GraphPad Software, La Jolla, CA) or in-house laboratory information management system (LIMS) software. Furin activity was tracked by analyzing the measured intensity for the enzymatic product as well as for the corresponding internal standard. Average control values were calculated and set to 100% activity (high controls) and 0% activity (low controls) while the response values of compound-containing wells were normalized against the controls and expressed as percentage of control (PoC). Determination of compound potencies was obtained by fitting the dose-response data to a four-parameter logistical equation.
Enzyme kinetics. Enzyme kinetic measurements were performed in 100 mM HEPES pH 7.5, 1 mM CaCl2, 0.01% (w/v) BSA, 0.001% (v/v) Tween20 with the fluorogenic substrate pyr-ERTKR-7-amino-4-methylcoumarin (pERTKR-AMC, Bachem) and 0.5 nM furin at 24°C. The reactions (100 µl) were initiated by addition of the substrate in 96-well black half area plates (Corning), pre-incubated for 30 min at 24°C and measured for 40 min in a 96-well plate reader (Tecan Infinite 200) at excitation and emission wavelengths of 380 nm and 460 nm, respectively. The Km value of pERTKR-AMC with furin was determined with 1:2 serial dilution series of the substrate from 100 µM to 0.78 µM. To investigate the inhibition mode of 1 with furin, 1:2 serial inhibitor dilution series were prepared in the concentration range between 100 nM and 0.78 nM and the reaction velocity was determined in presence of 4.4 µM, 8.9 µM and 13.3 µM pERTKR-AMC. Enzyme kinetic data were evaluated with GraphPad Prism. Km was calculated with the prebuild “Michaelis-Menten” model. […]
Target sequence in this assay (P09958 108-574 limits assumed): as above

furin [6] = test system: furin; design: method as in earlier work; settings: cell-based inhibition assays; cited from earlier work
furin [7] = molecular target: T1, furin; assay: biochemical
Target sequence in this assay (P09958 108-794): as the sequence (P09958 108-794) above

[8] = test system: Total TGFβ production in the lung; design: method as in earlier work; settings: cited from earlier work; for Total TGFβ production in the lung reduced by: 10 mg/kg of body weight; for bioavailability: bleomycin-induced lung fibrosis mouse model
furin [9] = test system: furin; design: method as in PMID 10958789; settings: read-out: IC50 (literature); cited from earlier work
[10] = 25°C, hexa-D-Arg: multicycle, poor curve fit, read-out: KD Mean ± SD
[11] = TGFβ substrate, replicate #1, read-out: IC50 #1
[12] = TGFβ substrate, replicate #2, read-out: IC50 #2
[13] = TGFβ substrate, replicate #3, read-out: IC50 #3
[14] = TGFβ-derived substrate 2.5 µM, 0.02 nM furin, read-out: IC50 Mean ± SD
[15] = injected intraperitoneally, mice

Compound: COCCN1CCN(c2ccc(Oc3cc(CN4CCC(CNC(C)=O)CC4)cc(-c4cc(Cl)cc(Cl)c4)n3)cn2)CC1 [Inhibitor 1]
- Tm #1 (furin [1]): 68.5 °C
- Tm #2 (furin [1]): 68.4 °C
- Tm Mean (furin [1]): 68.4 °C
- ΔTm (furin [1]): 10.8 °C
- IC50 (furin [2]): 1.3 nM
- koff (furin [3]; 25°C, single-cycle kinetic): 0.00018 s⁻¹
- kon (furin [3]; 25°C, single-cycle kinetic): 4600 ± 2500 M⁻¹ s⁻¹
- Kd (furin [3]; [10]): 28 ± 13 nM
- residence time (furin [3]): 92 min
- kon #1 (furin [3]; replicate #1): 4531 [Ms]-1
- Kd (furin [3]; replicate #1, read-out: KD #1): 48.7 nM
- kon #2 (furin [3]; replicate #2): 3563 [Ms]-1
- Kd (furin [3]; replicate #2, read-out: KD #2): 24.7 nM
- kon #3 (furin [3]; replicate #3): 8463 [Ms]-1
- Kd (furin [3]; replicate #3, read-out: KD #3): 26.1 nM
- IC50 (furin [4]; [11]): 2.6 nM
- IC50 (furin [4]; [12]): 2.4 nM
- IC50 (furin [4]; [13]): 2 nM
- IC50 (furin [4]; [14]): 2.3 nM
- inhibition mode (furin [5]; Dixon plot, pERTKR-AMC 4.4-13.3 μM): competitive
- Ki (furin [5]; competitive model, pERTKR-AMC 4.4, 8.9 and 13.3 µM, 0.5 nM furin): 3.8 ± 0.8 nM
- IC50 (furin [6]): 0.8 nM
- IC50 (furin [7]; IC50 #1): 1 nM
- IC50 (furin [7]; IC50 #2): 1.1 nM

- Tm #1 (furin [1]): 69.4 °C
- Tm #2 (furin [1]): 69.2 °C
- Tm Mean (furin [1]): 69.3 °C
- ΔTm (furin [1]): 11.6 °C
- IC50 (furin [4]; [14]): 1.3 nM
Compound: CC(=O)NCC1CCN(Cc2cc(Oc3cnc(N4CCN(CCC(C)C(=O)O)CC4)nc3)nc(-c3cc(Cl)cc(Cl)c3)c2)CC1 (centres unmarked) [Inhibitor 2]
- IC50 (furin [2]): 0.5 nM
- Total TGFβ production in the lung reduced by ([8]; oral, mice): 75%
- bioavailability ([8]; in words): comparably high
- oral availability ([8]; mice, in words): orally available
- IC50 (furin [6]): 5 nM

Compound: CC(=O)NCC1CCN(Cc2cc(Oc3cnc(N4CCN(CCC(=O)O)CC4)nc3)nc(-c3cc(Cl)cc(Cl)c3)c2)CC1 [Inhibitor 3]
- Tm #1 (furin [1]): 68.7 °C
- Tm #2 (furin [1]): 68.5 °C
- Tm Mean (furin [1]): 68.6 °C
- ΔTm (furin [1]): 10.9 °C
- IC50 (furin [2]): 0.16 nM
- koff (furin [3]; 25°C, single-cycle kinetic): 0.00031 s⁻¹
- kon (furin [3]; 25°C, single-cycle kinetic): 96000 M⁻¹ s⁻¹
- Kd (furin [3]; [10]): 3.1 ± 1.6 nM
- residence time (furin [3]): 53.7 min
- Kd (furin [3]; replicate #1, read-out: KD #1): 2.76 nM
- Kd (furin [3]; replicate #2, read-out: KD #2): 5.07 nM
- Kd (furin [3]; replicate #3, read-out: KD #3): 1.31 nM
- Total TGFβ production in the lung reduced by [8, 15]: 86%
- bioavailability ([8]; in words): comparably high
- IC50 (furin [4]; [11]): 2 nM
- IC50 (furin [4]; [12]): 2.3 nM
- IC50 (furin [4]; [13]): 1.2 nM
- IC50 (furin [4]; [14]): 1.8 nM
- IC50 (furin [6]): 10 nM
- IC50 (furin [7]; IC50 #1): 0.5 nM
- IC50 (furin [7]; IC50 #2): 1 nM
- IC50 (furin [7]; IC50 Mean): 0.8 nM

- Tm #1 (furin [1]): 68.3 °C
- Tm #2 (furin [1]): 68.2 °C
- Tm Mean (furin [1]): 68.3 °C
- ΔTm (furin [1]): 10.5 °C
- IC50 (furin [4]; [14]): 2.6 nM
Compound: CC(=O)NCC1CCN(Cc2cc(Oc3ccc(N4CCN(CCC(=O)O)CC4)nc3)nc(-c3cc(Cl)cc(Cl)c3)c2)CC1 [Inhibitor 4]
- IC50 (furin [2]): 0.25 nM
- Total TGFβ production in the lung reduced by [8, 15]: 69%
- bioavailability ([8]; in words): comparably high
- IC50 (furin [6]): 25.1 nM

- Tm #1 (furin [1]): 61.8 °C
- Tm #2 (furin [1]): 61.8 °C
- Tm Mean (furin [1]): 61.8 °C
- ΔTm (furin [1]): 4.0 °C
- IC50 (furin [4]; [14]): 78 nM
Compound: CN1CCN(c2ncc(Oc3cc(CN4CCC(OCC(=O)O)C4)cc(-c4cc(Cl)cc(Cl)c4)n3)cn2)CC1 (centres unmarked) [Inhibitor 5]
- IC50 (furin [2]): 13 nM
- IC50 (furin [6]): 630 nM

Compound: N=C(N)NCCC[C@@H](N)C(=O)N[C@H](CCCNC(=N)N)C(=O)N[C@H](CCCNC(=N)N)C(=O)N[C@H](CCCNC(=N)N)C(=O)N[C@H](CCCNC(=N)N)C(=O)N[C@H](CCCNC(=N)N)C(N)=O [hexa-D-arginine, reference compound]
- Tm #1 (furin [1]): 59.3 °C
- Tm #2 (furin [1]): 59.2 °C
- Tm Mean (furin [1]): 59.3 °C
- ΔTm (furin [1]): 1.6 °C
- koff Mean ± SD (furin [3]; 25°C, single-cycle kinetic): fast off-rate
- Kd (furin [3]; [10]): 530 ± 320 nM
- Kd (furin [3]; replicate #1, read-out: KD #1): 437 nM
- Kd (furin [3]; replicate #2, read-out: KD #2): 966 nM
- Kd (furin [3]; replicate #3, read-out: KD #3): 200 nM
- IC50 (furin [4]; IC50 #1, TGFβ substrate, replicate #1): 207 nM
- IC50 (furin [4]; IC50 #2, TGFβ substrate, replicate #2): 64.2 nM
- IC50 (furin [4]; IC50 #3, TGFβ substrate, replicate #3): 184 nM
- IC50 (furin [4]; IC50 Mean ± SD, TGFβ-derived substrate 2.5 µM, 0.02 nM furin): 152 ± 77 nM
- IC50 (furin [7]; IC50 Mean): 126 nM
- IC50 (furin [9]): 106 nM

- Km (furin [5]; Km of substrate pERTKR-AMC with furin): 9.6 µM
Compound: Cc1cc(=O)oc2cc(NC(=O)[C@H](CCCNC(=N)N)NC(=O)[C@H](CCCCN)NC(=O)[C@@H](NC(=O)[C@H](CCCNC(=N)N)NC(=O)[C@@H]3CCC(=O)N3)[C@@H](C)O)ccc12 [pERTKR-AMC, pyr-ERTKR-7-amino-4-methylcoumarin] ([pGlu]RTKR-{AMC})

Compound: AQHLQSSRHRRALDTNY [TGFβ, peptide substrate surrogate derived from TGFβ]
- Km (furin [4]; assay-specific apparent Km of the TGFβ-derived peptide substrate, read-out: Km,app): 1.8 µM
